Results reported in article PMC12396409, “Screening and hit evaluation of a microbial metabolite library against the pathogenic Plasmodium falciparum and Toxoplasma gondii parasites” (International Journal for Parasitology: Drugs and Drug …, 2025).
Like-named read-outs stand apart in the source and are kept apart here.

Assays:
[1] = system: P. falciparum 3D7 parasites; assay: P. falciparum growth inhibition assay, 2-cycle (120 h treatment), delayed-death screen and dose-response; type: cell-based, Plasmodium falciparum; conditions: for activity at 2 µg/mL: Plasmodium falciparum, 3D7
[2] = system: T. gondii RH strain (RH-Tub-eYFP) tachyzoites; assay: microbe, parasite or virus in culture; type: cell-based, Toxoplasma gondii; conditions: for percent parasite growth at 2 µg/mL: Toxoplasma gondii; for percent parasite growth at 2 µg/mL / Tg_72h_%Growth_Rep1 / Tg_72h_%Growth_Rep2: 72 h
[3] = system: P. falciparum 3D7 parasites; assay: P. falciparum growth inhibition assay, 1-cycle (72 h treatment), SYBR DNA staining (library screen at 2 μg/mL and dose-response); type: cell-based, Plasmodium falciparum; conditions: for activity at 2 µg/mL: Plasmodium falciparum, 3D7
[4] = active against the parasite at 2 μg/mL, no anti-tumour (NS-1) or cytotoxic (fibroblast) activity at 5 μg/mL
[5] = library screen at 2 μg/mL, 120 h, % growth, replicate 1, read-out: Pf_120h_%Growth_Rep1
[6] = library screen at 2 μg/mL, 120 h, % growth, replicate 2, read-out: Pf_120h_%Growth_Rep2
[7] = library screen at 2 μg/mL, % growth, replicate 1, read-out: Tg_72h_%Growth_Rep1
[8] = library screen at 2 μg/mL, % growth, replicate 2, read-out: Tg_72h_%Growth_Rep2
[9] = library screen at 2 μg/mL, 72 h, % growth, replicate 1, read-out: Pf_72h_%Growth_Rep1
[10] = library screen at 2 μg/mL, 72 h, % growth, replicate 2, read-out: Pf_72h_%Growth_Rep2

## Nc1ncnc2c1ncn2[C@@H]1O[C@H](C[C@@H](N)CC[C@H](N)C(=O)O)[C@@H](O)[C@H]1O [sinefungin, reference compound]
[1]; P. falciparum, 120 h, parasite screen 2 μg/mL, % growth, replicate 1, read-out: Pf_120h_%Growth_Rep1
  activity at 2 µg/mL: 13.4%
[1]; P. falciparum, 120 h, parasite screen 2 μg/mL, % growth, replicate 2, read-out: Pf_120h_%Growth_Rep2
  activity at 2 µg/mL: -3.05%
[2]; T. gondii, parasite screen 2 μg/mL, % growth, replicate 1, read-out: Tg_72h_%Growth_Rep1
  percent parasite growth at 2 µg/mL: 7.22%
[2]; T. gondii, parasite screen 2 μg/mL, % growth, replicate 2, read-out: Tg_72h_%Growth_Rep2
  percent parasite growth at 2 µg/mL: 12.7%
[2]; [4]
  selectivity for T. gondii in the screens: also active
[3]; P. falciparum, 72 h, parasite screen 2 μg/mL, % growth, replicate 1, read-out: Pf_72h_%Growth_Rep1
  activity at 2 µg/mL: 17.1%
[3]; P. falciparum, 72 h, parasite screen 2 μg/mL, % growth, replicate 2, read-out: Pf_72h_%Growth_Rep2
  activity at 2 µg/mL: 12.1%
[3]; [4]
  selectivity for P. falciparum in the screens: also active

## O=C1N[C@@H](Cc2ccc(O)cc2)C(=O)N2CCC[C@@H]12 [Cyclo(L-Pro-L-Tyr)]
[1]; P. falciparum, 120 h, screen at 2 μg/mL, replicate 1
  Pf_120h_%Growth_Rep1: 89.64%
[1]; P. falciparum, 120 h, screen at 2 μg/mL, replicate 2
  Pf_120h_%Growth_Rep2: 119.86%
[2]; T. gondii, screen at 2 μg/mL, replicate 1
  Tg_72h_%Growth_Rep1: 132.28%
[2]; T. gondii, screen at 2 μg/mL, replicate 2
  Tg_72h_%Growth_Rep2: 86.77%
[3]; P. falciparum, 72 h, screen at 2 μg/mL, replicate 1
  Pf_72h_%Growth_Rep1: 91.38%
[3]; P. falciparum, 72 h, screen at 2 μg/mL, replicate 2
  Pf_72h_%Growth_Rep2: 88.30%

## C[C@@]1(CO)[C@H](O)CC[C@@]2(C)[C@H]1CC[C@H]1C[C@@H]3C[C@@]12CC[C@]3(O)CO [Aphidicolin]
[1]; [5]
  activity at 2 µg/mL: 10.5%
[1]; [6]
  activity at 2 µg/mL: -6.36%
[2]; [7]
  percent parasite growth at 2 µg/mL: 1.91%
[2]; [8]
  percent parasite growth at 2 µg/mL: 0.58%
[3]; [9]
  activity at 2 µg/mL: 7%
[3]; [10]
  activity at 2 µg/mL: 4.32%

## COC1=CC(=O)c2c(n(C)c3occc3c2=O)C1=O [BIA-M1955]
[1]; P. falciparum 3D7, 120 h, parasite screen at 2 μg/mL, % growth, replicate 1
  Pf_120h_%Growth_Rep1: 53.96%
[1]; P. falciparum 3D7, 120 h, parasite screen at 2 μg/mL, % growth, replicate 2
  Pf_120h_%Growth_Rep2: 26.88%
[2]; T. gondii, parasite screen at 2 μg/mL, % growth, replicate 1
  Tg_72h_%Growth_Rep1: 248.99%
[2]; T. gondii, parasite screen at 2 μg/mL, % growth, replicate 2
  Tg_72h_%Growth_Rep2: 112.97%
[3]; P. falciparum 3D7, 72 h, parasite screen at 2 μg/mL, % growth, replicate 1
  Pf_72h_%Growth_Rep1: 39.08%
[3]; P. falciparum 3D7, 72 h, parasite screen at 2 μg/mL, % growth, replicate 2
  Pf_72h_%Growth_Rep2: 29.78%

## O=C1NC(c2c[nH]c3ccc(O)cc23)=C/C1=C1\C(=O)Nc2ccccc21 [Violacein]
[1]; P. falciparum, 120 h, screen at 2 μg/mL, replicate 1, read-out: Pf_120h_%Growth_Rep1
  activity at 2 µg/mL: 170%
[1]; P. falciparum, 120 h, screen at 2 μg/mL, replicate 2, read-out: Pf_120h_%Growth_Rep2
  activity at 2 µg/mL: 91.7%
[2]; T. gondii, screen at 2 μg/mL, replicate 1, read-out: Tg_72h_%Growth_Rep1
  percent parasite growth at 2 µg/mL: 85.9%
[2]; T. gondii, screen at 2 μg/mL, replicate 2, read-out: Tg_72h_%Growth_Rep2
  percent parasite growth at 2 µg/mL: 106%
[3]; P. falciparum, 72 h, screen at 2 μg/mL, replicate 1, read-out: Pf_72h_%Growth_Rep1
  activity at 2 µg/mL: 83.3%
[3]; P. falciparum, 72 h, screen at 2 μg/mL, replicate 2, read-out: Pf_72h_%Growth_Rep2
  activity at 2 µg/mL: 90.2%

## COC1/C=C\C=C(/C)C(=O)NC2=CC(=O)C(NCCN(C)C)=C(C[C@@H](C)C[C@H](OC)[C@H](O)[C@@H](C)/C=C(\C)[C@@H]1OC(N)=O)C2=O (some centres unmarked)
[1]; library screen at 2 μg/mL, 120 h, % growth, replicate 1
  Pf_120h_%Growth_Rep1: 10.33%
[1]; library screen at 2 μg/mL, 120 h, % growth, replicate 2
  Pf_120h_%Growth_Rep2: 2.04%
[2]; library screen at 2 μg/mL, % growth, replicate 1
  Tg_72h_%Growth_Rep1: -1.12%
[2]; library screen at 2 μg/mL, % growth, replicate 2
  Tg_72h_%Growth_Rep2: -0.16%
[3]; library screen at 2 μg/mL, 72 h, % growth, replicate 1
  Pf_72h_%Growth_Rep1: 11.89%
[3]; library screen at 2 μg/mL, 72 h, % growth, replicate 2
  Pf_72h_%Growth_Rep2: -0.93%

## COC(=O)C1(O)CC2OC1(C)n1c3ccccc3c3c4c(c5c6ccccc6n2c5c31)CNC4=O (centres unmarked) [BIA-K1225]
[1]; P. falciparum 3D7, 120 h, library screen at 2 μg/mL, % growth, replicate 1
  Pf_120h_%Growth_Rep1: 29.46%
[1]; P. falciparum 3D7, 120 h, library screen at 2 μg/mL, % growth, replicate 2
  Pf_120h_%Growth_Rep2: 12.07%
[2]; T. gondii RH, library screen at 2 μg/mL, % growth, replicate 1
  Tg_72h_%Growth_Rep1: -1.01%
[2]; T. gondii RH, library screen at 2 μg/mL, % growth, replicate 2
  Tg_72h_%Growth_Rep2: 0.85%
[3]; P. falciparum 3D7, 72 h, library screen at 2 μg/mL, % growth, replicate 1
  Pf_72h_%Growth_Rep1: 4.93%
[3]; P. falciparum 3D7, 72 h, library screen at 2 μg/mL, % growth, replicate 2
  Pf_72h_%Growth_Rep2: 0.48%

## C[C@H]1C(=O)N2c3ccccc3[C@@]3(O)C[C@@H]4C(=O)N[C@](C)(c5nc6ccccc6c(=O)n54)N1[C@@H]23 [Fumiquinazoline D]
[1]; [5]
  activity at 2 µg/mL: 80.2%
[1]; [6]
  activity at 2 µg/mL: 101%
[2]; [7]
  percent parasite growth at 2 µg/mL: 124%
[2]; [8]
  percent parasite growth at 2 µg/mL: 109%
[3]; [9]
  activity at 2 µg/mL: 76.9%
[3]; [10]
  activity at 2 µg/mL: 108%
